Experimental data taken from US20260015451A1, “FOAMED-RESIN-FORMABLE COMPOSITION, POLYUREA-BASED RESIN FOAM BODY, AND POLYUREA-BASED RESIN FOAM BODY PRODUCTION METHOD” (MITSUBISHI GAS CHEMICAL COMPANY, INC., priority 2022, published 2026).

How the values were obtained:
[1] = Percentage increase of mass after standing in air (absorption of carbon dioxide); format: physicochemical; conditions: air environment at 23° C. and 50% RH for a week
Description: A cyclic polyamine compound, MXDA, was put in a container and left to stand in an air environment at 23° C. and 50% RH for a week. By doing so, MXDA and carbon dioxide in the air were reacted to give a reaction product of MXDA and carbon dioxide (carbonate of MXDA). At that stage, to suppress uneven reaction, the container in which the cyclic polyamine compound was placed was shaken as necessary so as not to leave unreacted MXDA. The water content in the resulting reaction product (carbonate of MXDA) was 0% by mass.
Next, the amount of increase of the mass of MXDA was measured, and the percentage increase of the mass of the cyclic polyamine compound was calculated by the following equation.
Percentage increase of mass of cyclic polyamine compound [% by mass]=100×amount of increase of mass of cyclic polyamine compound (g)/(initial mass of cyclic polyamine compound (g)[…])

[2] = Maximum carbon dioxide (CO2) release temperature by DSC; format: physicochemical; conditions: after 24 hours in air at 23° C. and 50% RH; heating rate 10° C./minute, nitrogen
Description: A carbon dioxide detector and a Petri dish were placed in an openable desiccator (inner dimension: 370 mm × 260 mm × 272 mm). Subsequently, the cyclic polyamine compound (5 mmol) was added to the Petri dish in the desiccator and the door was immediately closed to leave the cyclic polyamine compound to stand in the desiccator in an air environment at 23° C. and 50% RH for 24 hours. The initial concentration of carbon dioxide was adjusted to about 400 ppm.
Then the cyclic polyamine compound was taken out of the desiccator to give a cyclic polyamine compound with carbon dioxide absorbed. The maximum carbon dioxide release temperature of the cyclic polyamine compound with carbon dioxide absorbed was measured by subjecting the cyclic polyamine compound to DSC as described below. First, differential scanning calorimetry of the cyclic polyamine compound was performed under conditions of a temperature range of 23 to 250° C., a heating rate of 10° C./minute and a nitrogen atmosphere using a differential thermogravimeter (product name DTG-60 made by Shimadzu Corporation). The temperature at which the amount of heat absorbed due to the desorption of carbon dioxide was the maximum was calculated from the DSC curve obtained, and the temperature was determined as the maximum carbon dioxide release temperature of the cyclic polyamine compound.

percentage increase of the mass [1]: 24.1 % by mass
maximum carbon dioxide (CO2) release temperature [2]: 135.5 °C
SMILES: NCc1cccc(CN)c1 [MXDA, metaxylylenediamine]
